Results published in PubChem BioAssay (NCI).
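Exposure lasted 48 hours, with cells grown in 96-well plates and compounds tested at five concentrations. TGI is the concentration that stops growth completely.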

Legend:
Test in all cases: NCI-60 cell line screen, 48 h
[1] = test system: 786-0 renal
[2] = test system: NCI-H23 lung
[3] = test system: HT29 colon
[4] = test system: SF-295 CNS
[5] = test system: SNB-19 CNS
[6] = test system: SR leukemia
[7] = test system: HCC-2998 colon
[8] = test system: ACHN renal
[9] = test system: MDA-N
[10] = test system: SF-268 CNS
[11] = test system: A549 NSCLC
[12] = test system: SK-MEL-5 melanoma
[13] = test system: CCRF-CEM leukemia
[14] = test system: K-562 leukemia
[15] = test system: SF-539 CNS
[16] = test system: NCI-H522 lung
[17] = test system: CAKI-1 renal
[18] = test system: HS 578T breast
[19] = test system: OVCAR-5 ovarian
[20] = test system: U251 CNS
[21] = test system: M14 melanoma
[22] = test system: NCI-H226 lung
[23] = test system: MOLT-4 leukemia
[24] = test system: SNB-75 CNS
[25] = test system: SK-OV-3 ovarian
[26] = test system: BT-549 breast
[27] = test system: OVCAR-3 ovarian
[28] = test system: HCT-15 colon
[29] = test system: MDA-MB-435
[30] = test system: IGROV1 ovarian
[31] = test system: LOX IMVI melanoma
[32] = test system: NCI/ADR-RES ovarian
[33] = test system: HOP-62 NSCLC
[34] = test system: TK-10 renal
[35] = test system: HOP-92 NSCLC
[36] = test system: PC-3 prostate
[37] = test system: OVCAR-8 ovarian
[38] = test system: SK-MEL-28 melanoma
[39] = test system: UACC-62 melanoma
[40] = test system: SN12C renal
[41] = test system: NCI-H460 lung
[42] = test system: UO-31 renal
[43] = test system: DU-145 prostate
[44] = test system: UACC-257 melanoma
[45] = test system: EKVX NSCLC
[46] = test system: OVCAR-4 ovarian
[47] = test system: SW-620 colon
[48] = test system: KM12 colon
[49] = test system: MDA-MB-231 breast
[50] = test system: HCT-116 colon
[51] = test system: MCF7 breast
[52] = test system: COLO 205 colon
[53] = test system: HL-60(TB) leukemia
[54] = test system: T-47D breast
[55] = test system: SK-MEL-2 melanoma
[56] = test system: A498 renal
[57] = test system: RPMI-8226 leukemia
[58] = test system: RXF 393 renal
[59] = test system: MALME-3M melanoma

COC(=O)Cc1cccc2c(=O)c(S(=O)(=O)NC(=O)Nc3ccc(Cl)cc3)c(-c3ccccc3)oc12
TGI [1]: > 100 µM | TGI [2]: > 100 µM | TGI [3]: > 100 µM | TGI [4]: > 100 µM | TGI [5]: > 100 µM | TGI [6]: > 100 µM | TGI [7]: > 100 µM | TGI [8]: 63.5 µM | TGI [9]: > 100 µM | TGI [10]: > 100 µM | TGI [11]: > 100 µM | TGI [12]: > 100 µM | TGI [13]: > 100 µM | TGI [14]: > 100 µM | TGI [15]: > 100 µM | TGI [16]: 38.6 µM | TGI [17]: 74.3 µM | TGI [18]: > 100 µM | TGI [19]: > 100 µM | TGI [20]: > 100 µM | TGI [21]: > 100 µM | TGI [22]: > 100 µM | TGI [23]: > 100 µM | TGI [24]: > 100 µM | TGI [25]: > 100 µM | TGI [26]: > 100 µM | TGI [27]: > 100 µM | TGI [28]: > 100 µM | TGI [29]: > 100 µM | TGI [30]: > 100 µM | TGI [31]: > 100 µM | TGI [32]: > 100 µM | TGI [33]: > 100 µM | TGI [34]: > 100 µM | TGI [35]: > 100 µM | TGI [36]: > 100 µM | TGI [37]: > 100 µM | TGI [38]: > 100 µM | TGI [39]: > 100 µM | TGI [40]: > 100 µM | TGI [41]: > 100 µM | TGI [42]: > 100 µM | TGI [43]: > 100 µM | TGI [44]: > 100 µM | TGI [45]: > 100 µM | TGI [46]: > 100 µM | TGI [47]: > 100 µM | TGI [48]: > 100 µM | TGI [49]: > 100 µM | TGI [50]: > 100 µM | TGI [51]: > 100 µM | TGI [52]: > 100 µM

Cc1cn(C(CO)OC(CO)CN(O)C2C3CC4CC(C3)CC2C4)c(=O)[nH]c1=O (configuration not stated)
TGI [1]: > 100 µM | TGI [2]: > 100 µM | TGI [3]: > 100 µM | TGI [4]: > 100 µM | TGI [5]: > 100 µM | TGI [6]: > 100 µM | TGI [7]: > 100 µM | TGI [8]: > 100 µM | TGI [9]: > 100 µM | TGI [53]: > 100 µM | TGI [10]: > 100 µM | TGI [11]: > 100 µM | TGI [12]: > 100 µM | TGI [54]: > 100 µM | TGI [14]: > 100 µM | TGI [15]: > 100 µM | TGI [17]: > 100 µM | TGI [55]: > 100 µM | TGI [18]: > 100 µM | TGI [19]: > 100 µM | TGI [56]: > 100 µM | TGI [20]: > 100 µM | TGI [57]: > 100 µM | TGI [21]: > 100 µM | TGI [22]: > 100 µM | TGI [23]: > 100 µM | TGI [24]: > 100 µM | TGI [25]: > 100 µM | TGI [26]: > 100 µM | TGI [28]: > 100 µM | TGI [29]: > 100 µM | TGI [30]: > 100 µM | TGI [33]: > 100 µM | TGI [34]: > 100 µM | TGI [35]: > 100 µM | TGI [36]: > 100 µM | TGI [37]: > 100 µM | TGI [38]: > 100 µM | TGI [39]: > 100 µM | TGI [40]: > 100 µM | TGI [41]: > 100 µM | TGI [42]: > 100 µM | TGI [43]: > 100 µM | TGI [44]: > 100 µM | TGI [45]: > 100 µM | TGI [46]: > 100 µM | TGI [47]: > 100 µM | TGI [48]: > 100 µM | TGI [49]: > 100 µM | TGI [50]: > 100 µM | TGI [51]: > 100 µM | TGI [52]: > 100 µM

Cc1ccc(S(=O)(=O)NC(Cc2ccccc2)C(=O)CCl)cc1 (configuration not stated)
TGI [1]: 27.8 µM | TGI [2]: 26.8 µM | TGI [3]: 28.5 µM | TGI [4]: 36.6 µM | TGI [5]: 32.1 µM | TGI [7]: 26.9 µM | TGI [8]: 30.1 µM | TGI [9]: 27.8 µM | TGI [53]: > 100 µM | TGI [10]: 31.4 µM | TGI [11]: 31.5 µM | TGI [12]: 25 µM | TGI [13]: > 100 µM | TGI [14]: > 100 µM | TGI [15]: 30.4 µM | TGI [16]: 21.4 µM | TGI [55]: 26 µM | TGI [18]: 11.3 µM | TGI [19]: 31.2 µM | TGI [56]: 31.7 µM | TGI [20]: 29.7 µM | TGI [21]: 26.2 µM | TGI [22]: 33.1 µM | TGI [24]: 28 µM | TGI [25]: 47 µM | TGI [26]: 23.9 µM | TGI [27]: 29.2 µM | TGI [28]: 31.6 µM | TGI [29]: 30.3 µM | TGI [30]: 28.8 µM | TGI [58]: 6.33 µM | TGI [31]: 20.1 µM | TGI [32]: 62.9 µM | TGI [33]: 31 µM | TGI [34]: 30.9 µM | TGI [35]: 26.8 µM | TGI [36]: 29.5 µM | TGI [37]: 29.7 µM | TGI [38]: 32.9 µM | TGI [39]: 26.4 µM | TGI [40]: 25.3 µM | TGI [41]: 29.3 µM | TGI [59]: 27.8 µM | TGI [42]: 27 µM | TGI [43]: 31.6 µM | TGI [44]: 24.9 µM | TGI [45]: 34.4 µM | TGI [46]: 18.9 µM | TGI [47]: 24.1 µM | TGI [49]: 27.3 µM | TGI [50]: 23.8 µM | TGI [51]: 24.5 µM | TGI [52]: 32.3 µM
